Laboratory results as given in patent publication US9862690B2, “Treatment of pulmonary and other conditions” (University of Pittsburgh—of the Commonwealth System of …, priority 2013, dated 2018).

How the values were obtained:
[1] = TRAP assay (quenching of ABTS+ radical cation); type: biochemical; conditions: 10 μmol compound, 5 min, absorbance 734 nm; Troxol reference
Protocol: The anti-oxidant activities of PB 141 were determined by the ability of this compound to react with pre-formed radical monocation of 2,2′-azinobis-(3-ethylbenzothiazoline)-6-sulfonic acid (ABTS^+). Data are representative of one of two independent experiments; n=3; *** P<0.001 versus Troxol.
The anti-oxidant activity of PB141 or PB157 was determined by the ability of these compounds to react with the pre-formed radical monocation of 2,2′-azinobis-(3-ethylbenzothiazoline)-6-sulfonic acid (ABTS^+). ABTS (1.8 mmol) was reacted overnight with potassium persulfate (0.63 mmol) in double distilled water, at room temperature in the dark, to generate the dark blue ABTS^+ radical cation. This radical cation has a maximum absorption at 734 nm. Immediately prior to the experiment, ABTS^+ was diluted with absolute ethanol to an absorbance of approximately 0.7 at 734 nm. PB141 or PB157 (10 μmol) was added to ABTS^+ (1 ml) and mixed by vortexing. The reaction was allowed to stabilize for 5 min and the absorbance was measured. The anti-oxidant activities of these compounds were determined by their ability to quench the color of the radical cation. Troxol (10 μmol) was used as reference standard.

[2] = FRAP assay (ferric reduction/anti-oxidant power); type: biochemical; conditions: 10 μmol compound, 5 min, 593 nm; Troxol reference
Protocol: The antioxidant activity of PB141 was determined by ferric reduction/anti-oxidant power (FRAP) assay in which the compound is reacted with ferric tripyridyltriazine complex. Data are representative of one of two independent experiments; n=3; *** P<0.001 versus Troxol.
The antioxidant activity of PB141 or PB157 was determined by ferric reduction/anti-oxidant power (FRAP) assay in which the compounds are reacted with ferric tripyridyltriazine complex. The ferric complex was prepared at room temperature by reaction of ferric chloride (16.7 mmol) and 2,4,6-trispyridyl-s-triazine (8.33 mmol) in pH 3.6 acetate buffer (0.25 M). The FRAP reagent was used immediately after preparation. PB141 or PB157 (10 μmol) was added to the FRAP reagent (1 ml) and mixed by vortexing. The reaction was allowed to stabilize for 5 min and the absorbance was measured. The antioxidant activities of these compounds were determined by the ability to reduce the ferric complex to a […] ferrous complex, monitored at 593 nm. Troxol (10 μmol) was used as reference standard.

BEAS-2B cells = type: cell-based
Protocol: To evaluate cell viability, apoptosis, and cytotoxicity, the Apo Tox-Glo Triplex assay was used according to the manufacturer's instructions (Promega, Madison, Wis.). Briefly, the BEAS-2B cells were plated at 2×10^4 cells/well in 100 μl medium in an opaque walled, clear-bottomed, 96-well plate. After 24 hr culture, they were treated for a further indicated time with different concentrations of PB141 or PB157. At the end of the culture period, 20 μl viability/cytotoxicity reagent was added to each well, mixed by orbital shaking (300 r.p.m. for 30 s) and incubated for 30 min at 37° C. Fluorescence was then measured with excitation at 400 nm and emission at 505 nm to assess cell viability, and 485 nm excitation and 520 nm emission to assess cytotoxicity; both were quantified as relative fluorescence units (RFU). Then, 100 μl Caspase-Glo 3/7 reagent was added to each well, mixed by orbital shaking (300 r.p.m. for 30 s) and incubated for 30 min at room temperature. Luminescence was measured to assess caspase activation as a marker of apoptosis and quantified as relative luminescence units. Results for PB141 and PB157 were similar.

For `CC(=O)N[C@@H](CSC(c1cnccn1)C1CCCC(C(SC[C@H](NC(C)=O)C(=O)O)c2cnccn2)C1=O)C(=O)O` (stereo partly shown) [PB157], the “Anti-oxidant activity (ability to quench ABTS+ radical cation)” value [1] was “clearly demonstrated”, the “Antioxidant activity (reduction of ferric complex)” value [2] was “highly significant and approximately equal” and the Cytotoxicity (BEAS-2B cells) was “without exhibiting cytotoxicity”. The “Apoptosis (caspase 3/7 activation)” value (BEAS-2B cells; different concentrations, data not shown) was “induced apoptosis”.
